Results: publication PMC5138836, “Antiproliferative activities of Amaryllidaceae alkaloids from Lycoris radiata targeting DNA topoisomerase I” (Scientific Reports, 2016)

Target: T1, DNA topoisomerase I (Top I) (Escherichia coli, UniProt P06612)
T1 construct: gene topA
Test: in vitro Top I inhibition assay (absorbance, plate reader); also affinity ultrafiltration HPLC-MS, EF […]
Type: biochemical

T1 sequence (P06612 whole entry): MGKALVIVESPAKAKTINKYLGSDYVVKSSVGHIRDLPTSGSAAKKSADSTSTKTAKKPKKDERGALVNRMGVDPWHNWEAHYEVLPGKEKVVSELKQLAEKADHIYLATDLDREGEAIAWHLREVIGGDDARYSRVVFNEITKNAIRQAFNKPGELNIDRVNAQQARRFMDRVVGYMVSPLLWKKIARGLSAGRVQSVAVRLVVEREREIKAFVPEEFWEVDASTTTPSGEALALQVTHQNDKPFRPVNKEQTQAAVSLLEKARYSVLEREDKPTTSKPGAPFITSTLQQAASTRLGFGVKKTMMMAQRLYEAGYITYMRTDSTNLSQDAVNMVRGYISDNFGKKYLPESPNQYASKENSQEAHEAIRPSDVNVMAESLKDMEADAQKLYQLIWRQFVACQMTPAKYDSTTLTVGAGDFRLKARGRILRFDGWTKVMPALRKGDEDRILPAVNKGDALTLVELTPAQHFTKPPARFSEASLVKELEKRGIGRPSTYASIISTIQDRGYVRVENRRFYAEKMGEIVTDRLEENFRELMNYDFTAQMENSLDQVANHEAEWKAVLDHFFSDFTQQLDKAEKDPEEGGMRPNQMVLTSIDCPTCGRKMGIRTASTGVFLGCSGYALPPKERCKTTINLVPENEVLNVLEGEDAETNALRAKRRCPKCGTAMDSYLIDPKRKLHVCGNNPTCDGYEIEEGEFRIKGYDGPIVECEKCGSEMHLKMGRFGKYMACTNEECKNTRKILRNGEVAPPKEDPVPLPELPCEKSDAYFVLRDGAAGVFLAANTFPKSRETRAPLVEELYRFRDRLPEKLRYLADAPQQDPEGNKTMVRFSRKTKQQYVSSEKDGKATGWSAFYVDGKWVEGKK

CN1CCC2=C[C@H](O)[C@H]3OC(=O)c4cc5c(cc4[C@H]3[C@@H]21)OCO5 [compound 5, hippeastrine]
IC50: 23 µM
